According to patent EP1016405A2, “Arylating medicaments” (Radopath Pharmaceuticals International Limited, priority 1993, dated 1994):
“And” between values parts separate entries of the source, which are not always exact repeats. Identical values can stand only once. Like-named read-outs stand apart in the source and are kept apart here.

Tests used:
B16 murine melanoma = test: Anti-tumour activity against B16 melanoma in C57/black mice, tumour weight inhibition; format: in vivo, female C57/black mice; conditions: statement in words, refers to Table 8
[1] = Anti-tumour activity in vitro; conditions: statement in words
[2] = test system: MAC15A (murine adenocarcinoma colon); test: Anti-tumour activity against MAC15A ascites tumour, survival T/C%; format: in vivo, mice; conditions: ip
P388 (murine leukaemia) = test: Anti-tumour activity against P388 ascites tumour, survival T/C%; format: in vivo, mice; conditions: Table 2, mean, day 1 to 5
Experimental: (§1) The purpose of these studies was to evaluate the anti-tumour properties of a group of compounds with structural similarities that may act as arylating agents. Their in vivo anti-tumour responses were assessed against two ascitic tumours, the MAC15A murine colon adenocarcinoma and the P388 murine leukaemia and various solid tumour models.
(§2) The MAC15A ascites tumour cells were transplanted into male NMR1 mice by ip inoculation at a cell density of 1 X 10^5 cells in 200µl buffer (Table 1). The P388 were transplanted ip into male BDF1 mice at cell density of 1 X 10^6 cells in 200µl buffer (Table 2). The solid tumour models included the MAC13 and MAC16 murine colon adenocarcinomas, the B16 F1 murine melanoma and the M5076 reticulum cell sarcoma.
(§3) Treatment commenced 3 days after ip transplant or, in the case of solid tumours such as MAC13 and MAC16, treatment commenced when average tumour volumes reached 40mm^3.
The animals were located in both cases into groups of 5 to 8 animals.
(§4) The animals were sacrificed after 12 days or when tumours ulcerated, tumour volume exceeded 1000mm^3 or loss of body weight exceeded 50%.
Except where otherwise stated, the compounds used were dissolved in DMSO and diluted in sterile distilled water, at appropriate concentrations before administration in a solvent volume of 200 µl. […]
T/C% is determined as follows:- […]

HIV-1RF = test: Acute Infection Assay, HIV core antigen ELISA in C8166 cells; format: cell-based, human immunodeficiency virus
in vitro = conditions: CC50 (Toxicity)
[3] = test system: M5076 reticulum cell sarcoma; test: Anti-tumour activity against M5076 reticulum cell sarcoma; format: in vivo, murine; conditions: statement in words
Experimental: as §1, §2, §3, §4
(§5) Except where otherwise stated, the compounds used were dissolved in DMSO and diluted in sterile distilled water, at appropriate concentrations before administration in a solvent volume of 200 µl. Anti-tumour responses were obtained by comparing the median survival times or tumour growth inhibition against solvent controls.

HIV-1IIIB = test: Acute infection assay against HIV-1IIIB; format: cell-based, human immunodeficiency virus; conditions: for IC50: Human immunodeficiency virus 1, IIIB, read-out: IC50 (Antiviral)
[4] = Anti-tumour activity against MAC13, tumour weight inhibition; format: in vivo, murine; conditions: mouse, in vivo; Table 6; ip, per day; corn oil; read-out: maximum tolerated dose
Experimental: as §1, §2, §3, §4, §5

[5] = test system: MAC13 murine colon adenocarcinoma; test: as above; format: in vivo; conditions: 12 days after im transplant, corn oil
Experimental: as §1, §2, §3, §4, §5

[6] = Anti-tumour activity against MAC16, tumour weight inhibition; format: in vivo, murine; conditions: mouse, in vivo; Table 7; ip, per day; corn oil; read-out: maximum tolerated dose
Experimental: as §1, §2, §3, §4, §5

[7] = test system: MAC16, murine colon adenocarcinoma; test: as above; format: in vivo; conditions: for % Tumour Weight Inhibition: day 11 after beginning of treatment, sc transplant, corn oil
Experimental: as §1, §2, §3, §4, §5

B16F1-murine melanoma = conditions: for % Tumour Weight Inhibition: days 1,3,5, 12 days after sc transplant, corn oil
in vivo = conditions: mouse, ip

## O=C(O)c1cc([N+](=O)[O-])ccc1Cl [2-chloro-5-nitrobenzoic acid]
B16 murine melanoma
  anti-tumour activity in vivo: shows consideration anti-tumour activity in vivo
[1]
  anti-tumour activity in vitro: could not be supported in vitro

## O=[N+]([O-])c1cc(S(=O)(=O)O)cc([N+](=O)[O-])c1Cl [Compound S1, 4-chloro-3,5-dinitrobenzenesulfonic acid]
[2]; mouse, in vivo
  T/C%: 414%
P388 (murine leukaemia); 50 mg kg^-1 per day IP
  TC%: 259%
P388 (murine leukaemia); 100mg kg^-1 per day IP
  TC%: 203%
HIV-1RF
  SI (Selectivity Index): 5 and 3
  TI: 28.6
HIV-1RF; read-out: IC50
  IC50: 3 µM
HIV-1RF; read-out: IC50 (Antiviral)
  IC50: 20 µM and 19 µM
Uninfected cells
  CD50: 80 µM
In vitro
  CC50: 100 µM

## COC(=O)c1cc([N+](=O)[O-])c(Cl)c([N+](=O)[O-])c1Cl [Compound C3, 2,4-dichloro-3,5-dinitrobenzoic acid methyl ester]
[3]
  antitumour activity: without antitumour activity
HIV-1IIIB
  IC50: 0.3 µM
In vitro
  CC50: 7 µM

## O=C(O)c1cc([N+](=O)[O-])c(Cl)c([N+](=O)[O-])c1Cl [Compound C1, 2,4-dichloro-3,5-dinitrobenzoic acid]
[2]; Mus musculus, MAC15A, read-out: T/C%
  response vs control in vivo at 100 mg/kg: 243%
[4]
  MTD at 12 days: 75 mg/kg
[5]; 50 mg/kg ip, days 1,2,3,4,5,6,7,8,9
  % Tumour Weight Inhibition: 39%
[5]; 75 mg/kg ip, days 1,4,5
  % Tumour Weight Inhibition: 45%
[6]
  MTD at 12 days: 75 mg/kg
[7]; 50 mg/kg ip, days 1,2,4,5,8
  % Tumour Weight Inhibition: 91%
[7]; 75 mg/kg ip, days 1,2,5,8
  % Tumour Weight Inhibition: 88%
[7]; statement in words, MAC16 murine colon adenocarcinoma
  inhibition of tumour growth: effectively inhibited growth
B16F1-murine melanoma; mouse, in vivo
  inhibition of tumour growth: effectively inhibited growth
Uninfected cells
  CC50: 60 µM
In vivo
  MTD: 75 mg/kg
In vitro
  CC50: 56 µM

## NC(=O)c1cc([N+](=O)[O-])c(Cl)c([N+](=O)[O-])c1 [Compound C5, 4-chloro-3,5-dinitrobenzamide]
HIV-1IIIB
  SI (Selectivity Index): 10
B16F1-murine melanoma; 1.25 mg/kg ip
  % Tumour Weight Inhibition: 27%
B16F1-murine melanoma; 2.5 mg/kg ip
  % Tumour Weight Inhibition: 18%
B16F1-murine melanoma; 5 mg/kg ip
  % Tumour Weight Inhibition: 18%
In vivo
  MTD at 12 days: 5 mg/kg
In vitro
  CC50: 50 µM

## NC(=O)c1cc([N+](=O)[O-])c(Cl)c([N+](=O)[O-])c1Cl [Compound C2, 2,4-dichloro-3,5-dinitrobenzamide]
[4]
  MTD at 12 days: 2.5 mg/kg
[5]; 1.25 mg/kg ip, days 1,2,3,4,5,6,7,8,9
  % Tumour Weight Inhibition: 17%
[5]; 2.5 mg/kg ip, days 1,2,3,4,5,6,7,8,9
  % Tumour Weight Inhibition: 51%
[3]
  antitumour activity: without antitumour activity
HIV-1IIIB
  SI (Selectivity Index): 35
  IC50: 2 µM
In vivo
  MTD: 2.5 mg/kg
In vitro
  CC50: 70 µM
